Active and inactive are the calls of the source.
Experiments:
[1] = target: T1, Sentrin-specific protease 7 (Homo sapiens, UniProt Q9BQF6); assay: SENP7 protease inhibitors, SAR follow-up, biochemical, luminescence (AID 504497); assay type: functional
T1 sequence (Q9BQF6 whole entry): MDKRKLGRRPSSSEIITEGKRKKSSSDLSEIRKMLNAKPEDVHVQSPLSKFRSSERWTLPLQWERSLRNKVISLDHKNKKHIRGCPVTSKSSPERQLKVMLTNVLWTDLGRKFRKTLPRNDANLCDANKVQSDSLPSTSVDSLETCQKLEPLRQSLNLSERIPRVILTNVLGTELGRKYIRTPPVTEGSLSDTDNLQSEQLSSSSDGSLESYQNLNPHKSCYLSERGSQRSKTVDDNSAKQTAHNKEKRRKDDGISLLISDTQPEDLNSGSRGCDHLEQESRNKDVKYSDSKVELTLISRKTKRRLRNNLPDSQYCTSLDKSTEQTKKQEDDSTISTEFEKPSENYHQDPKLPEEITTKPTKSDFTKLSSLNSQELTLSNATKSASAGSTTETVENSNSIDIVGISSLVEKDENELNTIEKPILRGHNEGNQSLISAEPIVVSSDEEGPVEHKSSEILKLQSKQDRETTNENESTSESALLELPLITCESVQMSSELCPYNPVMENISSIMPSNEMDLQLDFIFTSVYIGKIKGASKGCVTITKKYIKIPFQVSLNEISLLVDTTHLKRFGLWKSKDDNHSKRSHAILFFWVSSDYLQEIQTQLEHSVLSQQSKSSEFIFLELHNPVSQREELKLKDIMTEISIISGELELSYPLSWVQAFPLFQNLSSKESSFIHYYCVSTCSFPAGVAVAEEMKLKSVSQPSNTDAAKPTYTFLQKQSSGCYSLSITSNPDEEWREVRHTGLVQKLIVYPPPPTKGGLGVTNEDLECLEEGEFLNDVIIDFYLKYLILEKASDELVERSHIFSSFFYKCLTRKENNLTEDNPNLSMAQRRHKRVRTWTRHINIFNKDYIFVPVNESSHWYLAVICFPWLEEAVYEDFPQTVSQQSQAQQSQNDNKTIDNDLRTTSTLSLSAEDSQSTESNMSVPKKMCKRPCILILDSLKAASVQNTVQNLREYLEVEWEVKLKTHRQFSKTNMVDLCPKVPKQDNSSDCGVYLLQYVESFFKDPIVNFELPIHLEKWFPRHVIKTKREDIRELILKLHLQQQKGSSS

[2] = target: T1, Sentrin-specific protease 7; assay: SENP7 protease inhibitors, SAR follow-up, biochemical, luminescence, set 2 (AID 588600); assay type: functional
[3] = target: T2, Sentrin-specific protease 6 (Homo sapiens, UniProt Q9GZR1); assay: SENP6 protease inhibitors, SAR follow-up, biochemical, luminescence, set 2 (AID 588598); assay type: functional
T2 sequence (Q9GZR1 whole entry): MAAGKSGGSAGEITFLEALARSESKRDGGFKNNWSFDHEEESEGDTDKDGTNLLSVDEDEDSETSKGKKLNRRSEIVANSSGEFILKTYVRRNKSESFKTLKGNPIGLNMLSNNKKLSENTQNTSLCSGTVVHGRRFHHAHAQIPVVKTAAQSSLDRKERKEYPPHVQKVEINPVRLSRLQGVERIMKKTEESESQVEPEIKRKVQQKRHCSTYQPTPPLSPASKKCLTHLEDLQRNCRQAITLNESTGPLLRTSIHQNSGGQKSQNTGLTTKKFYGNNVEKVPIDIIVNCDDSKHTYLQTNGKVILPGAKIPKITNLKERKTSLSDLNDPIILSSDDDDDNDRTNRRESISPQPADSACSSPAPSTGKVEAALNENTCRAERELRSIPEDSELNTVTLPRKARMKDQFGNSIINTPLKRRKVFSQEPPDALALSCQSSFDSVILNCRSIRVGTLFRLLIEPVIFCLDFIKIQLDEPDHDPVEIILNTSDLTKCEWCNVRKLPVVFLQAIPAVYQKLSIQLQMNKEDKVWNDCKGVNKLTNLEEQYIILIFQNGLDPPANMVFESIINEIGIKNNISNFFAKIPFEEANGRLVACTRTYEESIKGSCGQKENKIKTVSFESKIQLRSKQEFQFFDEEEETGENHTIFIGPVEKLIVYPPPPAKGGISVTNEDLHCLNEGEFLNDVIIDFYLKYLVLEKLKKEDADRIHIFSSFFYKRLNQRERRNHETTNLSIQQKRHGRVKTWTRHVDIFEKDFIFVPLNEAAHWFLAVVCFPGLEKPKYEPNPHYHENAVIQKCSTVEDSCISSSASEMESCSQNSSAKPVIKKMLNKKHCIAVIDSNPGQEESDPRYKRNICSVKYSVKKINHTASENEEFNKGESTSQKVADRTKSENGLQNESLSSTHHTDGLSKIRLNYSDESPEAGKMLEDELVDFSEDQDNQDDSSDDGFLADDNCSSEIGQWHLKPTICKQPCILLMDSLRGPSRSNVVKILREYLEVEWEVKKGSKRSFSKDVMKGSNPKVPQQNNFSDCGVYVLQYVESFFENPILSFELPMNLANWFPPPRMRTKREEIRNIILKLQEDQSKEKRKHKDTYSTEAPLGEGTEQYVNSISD

[4] = target: T3, Sentrin-specific protease 8 (Homo sapiens, UniProt Q96LD8); assay: SENP8 protease inhibitors, SAR follow-up, biochemical, luminescence (AID 504501); assay type: functional
T3 sequence (Q96LD8 whole entry): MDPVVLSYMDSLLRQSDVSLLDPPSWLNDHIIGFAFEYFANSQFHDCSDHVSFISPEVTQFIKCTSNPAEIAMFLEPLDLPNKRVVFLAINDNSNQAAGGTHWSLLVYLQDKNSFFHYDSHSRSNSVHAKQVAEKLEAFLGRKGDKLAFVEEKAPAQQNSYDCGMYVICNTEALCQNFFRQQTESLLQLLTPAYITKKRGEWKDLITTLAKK

Caspase-3 [5] = target: T4, Caspase-3 (Homo sapiens, UniProt P42574); assay: caspase-3 inhibitors as off-family protease, SAR follow-up, selectivity assay for SENP protease inhibitor project, biochemical, luminescence, set 2 (AID 588599); assay type: functional
T4 sequence (P42574 whole entry): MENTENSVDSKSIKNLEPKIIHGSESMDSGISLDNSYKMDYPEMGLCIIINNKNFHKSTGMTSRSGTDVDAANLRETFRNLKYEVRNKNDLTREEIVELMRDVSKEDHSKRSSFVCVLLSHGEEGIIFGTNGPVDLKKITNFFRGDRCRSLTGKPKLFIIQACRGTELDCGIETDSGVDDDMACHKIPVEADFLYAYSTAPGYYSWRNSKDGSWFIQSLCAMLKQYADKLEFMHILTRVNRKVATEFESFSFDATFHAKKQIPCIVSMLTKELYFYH

[6] = target: T3, Sentrin-specific protease 8; assay: SENP8 protease inhibitors, SAR follow-up, biochemical, luminescence, set 2 (AID 588601); assay type: functional
Caspase-3 [7] = target: T4, Caspase-3; assay: SAR Analysis of small molecule inhibitors of Sentrin-specific proteases (SENPs) using a Caspase-3 Selectivity assay. [Related pubchem assays (depositor defined):AID2540, AID2599, AID434973, AID489001]; assay type: functional
[8] = target: T2, Sentrin-specific protease 6; assay: SAR Analysis of small molecule inhibitors of Sentrin-specific protease 6 (SENP6) using a Luminescent assay. [Related pubchem assays (depositor defined):AID2582, AID2599]; assay type: functional
Phospholipase D1 = Phospholipase D1 (Homo sapiens, UniProt Q13393); assay: PLD1 inhibitor potency in cells, dose response (AID 602151); assay type: functional;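 also: cellular PLD1 assay in Calu-1 cells stimulated with PMA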
Phospholipase D2 = Phospholipase D2 (Homo sapiens, UniProt O14939); assay: PLD2 inhibitor potency in cells, dose response (AID 602147); assay type: functional;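 also: cellular assay in HEK293 cells overexpressing GFP-tagged PLD2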
HeLa = assay: HeLa cell cytotoxicity, dose response, cytotoxicity control for MITF activator project, CellTiter-Glo luminescence, cherry-pick samples (AID 540259); assay type: functional, cell-based; details: Homo sapiens
H4 = assay: Luminescence Cell-Based Dose Response HTS to Identify Activators of 5'UTR Stem-Loop Driven Prion Protein mRNA Translation in H4 Neuroglioblastoma Cells. [Related pubchem assays: 1829 (Project Summary), 1814 (Primary HTS)]; assay type: functional; details: Homo sapiens
[9] = Luminescence Cell-Based Dose Response HTS to Identify Activators of Luciferase Translation or Activity in H4 […] Cells. [Related pubchem assays: 1829 (Project Summary), 1814 (Primary HTS)]; assay type: functional
[10] = target: Beta-adrenergic receptor kinase 1 (Homo sapiens, UniProt P25098); assay: aptamer displacement from bead-bound GRK2 – biochemical, cherry pick 1, bead flow cytometry, dose response (AID 504500)
[11] = target: T5, Dual specificity protein phosphatase 6 (Rattus norvegicus, UniProt Q64346); assay: MKP-3 phosphatase inhibitors, primary screen, biochemical, rat enzyme, in vitro (AID 425)
T5 sequence (Q64346 whole entry): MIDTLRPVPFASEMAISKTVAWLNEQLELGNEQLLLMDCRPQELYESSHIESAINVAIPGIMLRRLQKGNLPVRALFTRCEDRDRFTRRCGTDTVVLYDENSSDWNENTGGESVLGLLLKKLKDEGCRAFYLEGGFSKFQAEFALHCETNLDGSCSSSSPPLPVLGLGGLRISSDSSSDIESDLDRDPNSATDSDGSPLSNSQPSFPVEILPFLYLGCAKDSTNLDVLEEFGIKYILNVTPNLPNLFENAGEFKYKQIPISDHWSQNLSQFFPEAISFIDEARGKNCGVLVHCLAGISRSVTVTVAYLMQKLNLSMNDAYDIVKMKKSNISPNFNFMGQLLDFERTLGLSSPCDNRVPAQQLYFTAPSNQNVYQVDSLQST

[12] = target: Intestinal-type alkaline phosphatase (Mus musculus, UniProt P24822); assay: mouse intestinal alkaline phosphatase activators, dose response, biochemical, luminescence, uHTS hits (AID 488783); assay type: functional
[13] = target: T6, Alkaline phosphatase, tissue-nonspecific isozyme (Homo sapiens, UniProt P05186); assay: TNAP enzyme activators, dose response, selectivity assay for mouse IAP activator project, biochemical, TNAP isozyme, mouse IAP uHTS hits (AID 488880); assay type: functional
T6 sequence (P05186 whole entry): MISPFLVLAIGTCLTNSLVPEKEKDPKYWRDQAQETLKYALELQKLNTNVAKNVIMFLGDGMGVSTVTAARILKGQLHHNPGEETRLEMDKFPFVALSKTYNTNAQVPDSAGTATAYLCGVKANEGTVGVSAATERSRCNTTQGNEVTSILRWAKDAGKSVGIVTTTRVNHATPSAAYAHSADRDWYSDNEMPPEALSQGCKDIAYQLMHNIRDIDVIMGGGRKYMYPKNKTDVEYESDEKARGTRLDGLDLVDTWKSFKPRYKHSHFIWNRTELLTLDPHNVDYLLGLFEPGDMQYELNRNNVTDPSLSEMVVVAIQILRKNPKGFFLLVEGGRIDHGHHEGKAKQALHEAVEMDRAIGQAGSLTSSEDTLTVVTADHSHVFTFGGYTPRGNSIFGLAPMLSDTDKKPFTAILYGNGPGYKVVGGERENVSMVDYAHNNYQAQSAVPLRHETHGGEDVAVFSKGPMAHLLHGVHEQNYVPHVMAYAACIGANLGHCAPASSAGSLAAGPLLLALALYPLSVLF

[14] = target: Intestinal-type alkaline phosphatase (Homo sapiens, UniProt P09923); assay: activation of human intestinal alkaline phosphatase – biochemical, dose response (AID 488873); assay type: functional
[15] = target: Voltage-gated inwardly rectifying potassium channel KCNH2 (Homo sapiens, UniProt Q12809); details: Potency;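 also: confirmatory quantitative high-throughput screen measuring inhibition of hERG channel activity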
HEK293 [16] = assay: SAR Analysis of small molecule inhibitors of T-cell specific antigen receptor-induced NF-kB activation in a HEK-293T cell line using a luminescence assay - Set 2. [Related pubchem assays (depositor defined):AID435003, AID435012, AID489026]; assay type: functional, cell-based; details: Homo sapiens
Jurkat = assay: SAR Analysis of small molecule inhibitors of T-cell specific antigen receptor-induced NF-kB activation in a Jurkat cell line using a luminescence assay - Set 2. [Related pubchem assays (depositor defined):AID435003, AID435012, AID465]; assay type: functional, cell-based; details: Homo sapiens
HEK293 [17] = assay: cytotoxicity in HEK293T NF-kB-Luc cells, SAR follow-up, cytotoxicity control for NF-kB activator project, cell-based, resazurin fluorescence (AID 493251); assay type: functional; details: Homo sapiens
A-375 [18] = assay: A375 melanoma cell viability reduction, dose response, counter-screen for MITF modulator project, cherry-pick samples, set 2 (AID 540335); assay type: functional, cell-based; details: Homo sapiens
A-375 [19] = assay: MITF: Counter assay: A375 proliferation Measured in Cell-Based System Using Plate Reader - 2084-03_Inhibitor_Dose_DryPowder_Activity. [Related pubchem assays (depositor defined):AID488944]; assay type: functional; details: Homo sapiens
[20] = target: Peroxisome proliferator-activated receptor gamma/Nuclear receptor coactivator 1 (Homo sapiens, UniProt P37231); assay type: functional;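 also: agonist potency as compounds enhance coactivator SRC-1 recruitment to PPARgamma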
[21] = target: Peroxisome proliferator-activated receptor gamma/Nuclear receptor coactivator 3 (Homo sapiens, UniProt P37231); assay type: functional;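 also: agonist potency for raising coactivator recruitment to the receptor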
[22] = target: Peroxisome proliferator-activated receptor gamma/Nuclear receptor coactivator 2 (Homo sapiens, UniProt P37231); assay type: functional;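 also: agonist potency for raising coactivator recruitment to the receptor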

Chain of Intestinal-type alkaline phosphatase (Homo sapiens, UniProt P09923) (P09923 whole entry): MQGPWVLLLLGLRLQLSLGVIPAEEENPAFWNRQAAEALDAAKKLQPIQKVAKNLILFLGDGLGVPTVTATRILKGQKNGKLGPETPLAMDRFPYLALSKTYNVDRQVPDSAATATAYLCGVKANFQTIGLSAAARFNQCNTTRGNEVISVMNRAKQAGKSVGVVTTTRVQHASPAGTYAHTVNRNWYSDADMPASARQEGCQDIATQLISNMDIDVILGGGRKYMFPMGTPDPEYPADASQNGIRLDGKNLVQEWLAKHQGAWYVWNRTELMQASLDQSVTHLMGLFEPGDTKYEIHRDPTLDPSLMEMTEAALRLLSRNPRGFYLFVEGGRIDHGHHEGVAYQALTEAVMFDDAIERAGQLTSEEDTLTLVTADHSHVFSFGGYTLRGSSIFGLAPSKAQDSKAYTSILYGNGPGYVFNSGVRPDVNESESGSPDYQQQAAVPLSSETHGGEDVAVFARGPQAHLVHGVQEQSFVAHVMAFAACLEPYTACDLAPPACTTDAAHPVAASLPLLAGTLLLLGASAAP
Chain of Beta-adrenergic receptor kinase 1 (P25098 whole entry): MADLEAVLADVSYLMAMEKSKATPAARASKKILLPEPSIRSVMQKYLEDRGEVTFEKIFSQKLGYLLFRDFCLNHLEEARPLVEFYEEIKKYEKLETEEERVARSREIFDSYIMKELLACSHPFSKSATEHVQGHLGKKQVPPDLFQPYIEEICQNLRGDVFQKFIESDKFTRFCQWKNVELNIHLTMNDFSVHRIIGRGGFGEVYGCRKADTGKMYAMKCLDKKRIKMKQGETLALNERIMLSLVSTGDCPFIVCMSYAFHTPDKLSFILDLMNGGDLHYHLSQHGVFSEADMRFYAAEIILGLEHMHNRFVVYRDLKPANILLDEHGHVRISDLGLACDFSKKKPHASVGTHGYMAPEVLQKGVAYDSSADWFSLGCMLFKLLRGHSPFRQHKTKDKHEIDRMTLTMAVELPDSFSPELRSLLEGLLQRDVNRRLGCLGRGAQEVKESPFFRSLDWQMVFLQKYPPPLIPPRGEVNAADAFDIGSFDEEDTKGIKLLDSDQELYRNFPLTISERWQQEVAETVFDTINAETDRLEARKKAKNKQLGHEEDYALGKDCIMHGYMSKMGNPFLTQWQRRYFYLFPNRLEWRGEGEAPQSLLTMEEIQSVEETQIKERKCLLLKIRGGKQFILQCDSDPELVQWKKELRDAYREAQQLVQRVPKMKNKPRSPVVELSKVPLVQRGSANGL
Chain of Phospholipase D2 (O14939 whole entry): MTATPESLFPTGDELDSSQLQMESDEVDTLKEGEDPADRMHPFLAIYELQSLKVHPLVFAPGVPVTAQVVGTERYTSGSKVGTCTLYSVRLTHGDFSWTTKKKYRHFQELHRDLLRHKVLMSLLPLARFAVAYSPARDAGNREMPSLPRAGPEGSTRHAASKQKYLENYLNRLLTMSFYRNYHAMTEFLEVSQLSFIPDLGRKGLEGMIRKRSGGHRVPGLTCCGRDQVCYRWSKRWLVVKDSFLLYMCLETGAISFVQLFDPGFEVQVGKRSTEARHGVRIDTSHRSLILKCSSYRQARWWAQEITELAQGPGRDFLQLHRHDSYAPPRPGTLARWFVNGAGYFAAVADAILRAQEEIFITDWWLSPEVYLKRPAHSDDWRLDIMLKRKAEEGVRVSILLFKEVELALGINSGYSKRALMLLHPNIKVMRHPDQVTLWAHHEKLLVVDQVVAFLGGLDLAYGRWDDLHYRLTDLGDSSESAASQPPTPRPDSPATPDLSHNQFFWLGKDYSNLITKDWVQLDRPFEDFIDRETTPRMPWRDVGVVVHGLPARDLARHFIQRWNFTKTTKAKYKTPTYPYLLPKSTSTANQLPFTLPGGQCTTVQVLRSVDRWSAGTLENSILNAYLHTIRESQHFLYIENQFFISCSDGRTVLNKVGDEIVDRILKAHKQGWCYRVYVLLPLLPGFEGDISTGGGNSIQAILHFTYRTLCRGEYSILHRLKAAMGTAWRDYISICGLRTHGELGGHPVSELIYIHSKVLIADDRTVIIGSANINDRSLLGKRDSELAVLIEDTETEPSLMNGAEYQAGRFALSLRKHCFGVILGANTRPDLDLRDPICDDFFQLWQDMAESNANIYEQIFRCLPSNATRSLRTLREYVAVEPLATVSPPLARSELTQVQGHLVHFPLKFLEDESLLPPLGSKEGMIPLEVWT
Chain of Intestinal-type alkaline phosphatase (Mus musculus, UniProt P24822) (P24822 whole entry): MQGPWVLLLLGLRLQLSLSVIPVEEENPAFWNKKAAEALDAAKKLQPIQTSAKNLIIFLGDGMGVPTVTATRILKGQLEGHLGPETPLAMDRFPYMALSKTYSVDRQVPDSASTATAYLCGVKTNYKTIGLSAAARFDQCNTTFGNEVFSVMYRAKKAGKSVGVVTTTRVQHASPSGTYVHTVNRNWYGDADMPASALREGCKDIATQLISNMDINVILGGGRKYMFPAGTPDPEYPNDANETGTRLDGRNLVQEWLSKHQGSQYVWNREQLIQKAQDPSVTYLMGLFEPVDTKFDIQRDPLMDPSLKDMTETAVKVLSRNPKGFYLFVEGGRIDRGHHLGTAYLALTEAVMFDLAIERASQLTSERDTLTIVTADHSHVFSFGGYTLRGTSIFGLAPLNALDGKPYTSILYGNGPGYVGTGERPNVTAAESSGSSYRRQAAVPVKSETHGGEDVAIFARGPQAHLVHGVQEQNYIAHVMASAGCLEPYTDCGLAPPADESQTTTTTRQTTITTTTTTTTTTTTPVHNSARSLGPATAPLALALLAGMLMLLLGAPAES
Chain of Peroxisome proliferator-activated receptor gamma/Nuclear receptor coactivator 3 (P37231 whole entry): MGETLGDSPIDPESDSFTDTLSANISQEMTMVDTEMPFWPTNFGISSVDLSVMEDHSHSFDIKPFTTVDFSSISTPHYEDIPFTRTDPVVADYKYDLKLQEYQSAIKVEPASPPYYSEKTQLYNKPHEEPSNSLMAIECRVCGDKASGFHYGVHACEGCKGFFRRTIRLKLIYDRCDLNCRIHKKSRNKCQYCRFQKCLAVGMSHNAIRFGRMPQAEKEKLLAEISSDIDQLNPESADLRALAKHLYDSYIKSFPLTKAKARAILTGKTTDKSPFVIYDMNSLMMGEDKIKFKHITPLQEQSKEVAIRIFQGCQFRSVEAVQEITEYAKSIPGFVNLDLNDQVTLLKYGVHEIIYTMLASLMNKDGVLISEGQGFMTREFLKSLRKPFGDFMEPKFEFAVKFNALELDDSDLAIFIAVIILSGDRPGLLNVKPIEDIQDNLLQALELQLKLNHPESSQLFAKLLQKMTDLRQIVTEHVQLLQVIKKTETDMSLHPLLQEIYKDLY
Chain of Peroxisome proliferator-activated receptor gamma/Nuclear receptor coactivator 3 (Q9Y6Q9 whole entry, further chain): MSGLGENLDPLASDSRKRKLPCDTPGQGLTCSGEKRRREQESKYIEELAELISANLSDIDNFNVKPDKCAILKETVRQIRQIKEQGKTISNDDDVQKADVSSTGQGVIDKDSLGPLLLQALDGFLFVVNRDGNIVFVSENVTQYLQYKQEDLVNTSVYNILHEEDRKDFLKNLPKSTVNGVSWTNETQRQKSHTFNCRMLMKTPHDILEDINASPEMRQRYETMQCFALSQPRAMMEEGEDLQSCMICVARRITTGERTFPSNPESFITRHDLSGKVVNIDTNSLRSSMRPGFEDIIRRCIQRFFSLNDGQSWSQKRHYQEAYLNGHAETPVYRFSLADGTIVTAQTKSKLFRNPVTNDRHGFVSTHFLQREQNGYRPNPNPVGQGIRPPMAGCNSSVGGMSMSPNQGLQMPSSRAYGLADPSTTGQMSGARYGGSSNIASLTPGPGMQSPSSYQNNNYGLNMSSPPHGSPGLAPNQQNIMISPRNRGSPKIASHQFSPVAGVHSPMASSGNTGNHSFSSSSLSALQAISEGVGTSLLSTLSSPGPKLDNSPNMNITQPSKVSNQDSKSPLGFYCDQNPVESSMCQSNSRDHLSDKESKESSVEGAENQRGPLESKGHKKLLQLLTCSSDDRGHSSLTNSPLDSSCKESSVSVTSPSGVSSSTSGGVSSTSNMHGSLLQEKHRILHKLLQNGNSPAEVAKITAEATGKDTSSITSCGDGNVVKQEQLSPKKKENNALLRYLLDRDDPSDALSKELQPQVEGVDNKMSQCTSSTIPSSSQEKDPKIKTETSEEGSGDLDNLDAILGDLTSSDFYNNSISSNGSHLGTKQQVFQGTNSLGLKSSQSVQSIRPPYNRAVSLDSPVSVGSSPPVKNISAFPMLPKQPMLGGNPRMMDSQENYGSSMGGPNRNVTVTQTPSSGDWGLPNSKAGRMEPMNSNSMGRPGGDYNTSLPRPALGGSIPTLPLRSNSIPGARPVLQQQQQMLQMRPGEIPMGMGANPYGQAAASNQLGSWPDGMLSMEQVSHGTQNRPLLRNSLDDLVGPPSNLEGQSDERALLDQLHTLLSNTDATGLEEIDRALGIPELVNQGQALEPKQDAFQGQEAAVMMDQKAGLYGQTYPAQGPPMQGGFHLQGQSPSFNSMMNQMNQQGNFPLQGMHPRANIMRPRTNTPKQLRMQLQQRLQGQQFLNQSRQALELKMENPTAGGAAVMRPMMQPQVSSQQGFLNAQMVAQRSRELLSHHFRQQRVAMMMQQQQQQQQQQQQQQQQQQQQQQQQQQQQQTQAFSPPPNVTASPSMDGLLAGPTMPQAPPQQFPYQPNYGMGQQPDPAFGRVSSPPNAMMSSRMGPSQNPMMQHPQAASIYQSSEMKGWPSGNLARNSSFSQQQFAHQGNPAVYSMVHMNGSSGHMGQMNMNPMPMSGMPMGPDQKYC

COc1cccc(-c2nc(/C=C/c3ccccc3)no2)c1
IC50 [1]: 14 µM (active) | IC50 [2]: 12.2 µM (active) | IC50 [3]: 13.5 µM (active) | IC50 [4]: 52 µM (active) | IC50 (Caspase-3 [5]): 33.5 µM (active) | IC50 [6]: 12.2 µM (active) | IC50 (Caspase-3 [7]): 47 µM (active) | IC50 [8]: 45 µM (active)

CN(CCN1CCC2(CC1)C(=O)NCN2c1ccccc1)C(=O)c1ccc2ccccc2c1
IC50 (Phospholipase D1): 20 µM (inactive) | IC50 (Phospholipase D2): 20 µM (active)

CCCc1cc2c(=O)c(-c3ccccn3)coc2cc1OC
AC50 (HeLa): 73.5 µM (active) | EC50 (H4): > 120 µM (not active) | EC50 [9]: 0.182 µM (active)

CCOC(=O)C(C)Sc1nc2c(c(=O)[nH]c(=O)n2C)n1C/C=C(/C)Cl (configuration not stated)
EC50 [10]: 22.1 µM (inactive) | IC50 [11]: > 10 µM (not active) | EC50 [12]: 69.8 µM (active) | EC50 [13]: 66.9 µM (active) | EC50 [14]: 74.2 µM (active)

CN(C)CCC(c1ccccc1)c1ccccn1 (configuration not stated)
AC50 [15]: 35.5 µM (inconclusive)

Cc1ccc(C(NC(=O)C2CCCCC2)c2ccc3cccnc3c2O)cc1 (configuration not stated)
IC50 (HEK293 [16]): 4.93 µM (active) | IC50 (Jurkat): 2.62 µM (active) | IC50 (HEK293 [17]): 21 µM (inactive)

CC(C)OC(=O)CSc1nc2cc3c(cc2cc1C#N)OCO3
AC50 (A-375 [18]): > 35 µM (active) | AC50 (A-375 [19]): > 35 µM (active) | EC50 [20]: 11.9 µM (not active) | EC50 [21]: 18.3 µM (not active) | EC50 [22]: 10.2 µM (not active)

Source: ChEMBL document CHEMBL1201862, “PubChem BioAssay data set” (2004)
